Patent EP4793641A1, “NOVEL METHOD FOR ANALYZING BIOMOLECULAR INTERACTIONS” (Kyoto University, priority 2023, dated 2025)
Non-standard residues stand in square brackets, D forms with d. Residues, ends and D or L forms follow the SMILES beside them. *: point of attachment. pS = N[C@@H](COP(=O)(O)O)C(=O)O; Bn = c1ccc(C*)cc1; tBu = CC(C)(C)*

biological target: T1, interactions between Talin 1 (TLN1) and integrin subunit beta (ITGB) (Homo sapiens, UniProt Q9Y490); test: Flip-flop detection mechanism on DNA origami (LgBit/SmBit luminescence), inhibitor screening; assay type: biochemical; settings: inhibition of binding between TLN1 and ITBG
T1 construct: LgBit or SmBit (N-terminal of the HaloTag); made in house
Source text: Two types of systems, i.e., flip-flop detection mechanism and switch detection mechanism, were constructed by using HaloTag, LgBit, SmBit, TLN1, and ITGB. Each of TLN1 (Uniprot ID: Q9Y490) and ITGB1 (Uniprot ID: P05556) was cloned from the registered genetic information. HaloTAg has three chemically modifiable locations at a ligand recognition site, C-terminus, and N-terminus. In this Example, a single-stranded DNA for attaching to DNA origami was connected to a ligand recognition site of HaloTag, a subunit of an interaction complex was connected to the C-terminus, and LgBit or SmBit was connected to the N-terminus.
The outline of the system is disclosed in Figure 23. When TLN1 and ITBG are in a bound state in this system, LgBit and SmBit are at spatially separated positions from each other, with a HaloTag interposed therebetween. In this regard, if an inhibitor is added, complex formation of TLN1 and ITBG is inhibited. As a result, a LgBit-SmBit complex can be formed, and a luminescence reaction progresses.
As a candidate drug for inhibiting the binding between TLN1 and ITBG, peptide inhibitors consisting of 13 amino acids prepared by modifying amino acids in an intracellular region of ITGB3 have been designed (Shen B. et al., A directional switch of integrin signaling and a new antithrombotic strategy. Nature 503, 131-135 (2013)). IC50 values for the peptides shown in the following table were calculated by using the flip-flop detection mechanism described in Example 11 for optimizing the sequence. In this manner, the effect of a large number of compounds on the interaction with a target protein can be readily analyzed in the system of the present disclosed.

Inhibitory activity | Compound
no inhibition | CSCC[C@H](NC(=O)[C@H](CCCCN)NC(=O)[C@H](CCC(=O)O)NC(=O)[C@H](CCCCN)NC(=O)[C@H](CCC(=O)O)NC(=O)[C@H](Cc1ccccc1)NC(=O)[C@@H](N)CCCCN)C(=O)N[C@@H](CC(N)=O)C(=O)N[C@@H](C)C(=O)N[C@@H](CCCCN)C(=O)N[C@@H](Cc1c[nH]c2ccccc12)C(=O)N[C@@H](CCSC)C(=O)N[C@H](C(=O)O)[C@@H](C)O [FIYM9] (H-KFEKEKMNAKWMT-OH)
no inhibition | CSCC[C@H](NC(=O)[C@H](CCCNC(=N)N)NC(=O)[C@H](CCC(=O)O)NC(=O)[C@H](Cc1ccccc1)NC(=O)[C@@H](N)CCCCN)C(=O)N[C@@H](CC(N)=O)C(=O)N[C@@H](CS)C(=O)N[C@@H](CCCCN)C(=O)N[C@@H](Cc1c[nH]c2ccccc12)C(=O)N[C@@H](CCSC)C(=O)N[C@H](C(=O)O)[C@@H](C)O [FIYM20] (H-KFERMNCKWMT-OH)
no inhibition | CC[C@H](C)[C@H](NC(=O)[C@@H]1CCCN1C(=O)[C@H](CC(N)=O)NC(=O)[C@H](CCC(=O)O)NC(=O)CNC(=O)[C@@H](NC(=O)[C@H](CC(=O)O)NC(=O)[C@H](Cc1c[nH]c2ccccc12)NC(=O)[C@H](CCCCN)NC(=O)[C@H](C)NC(=O)[C@H](CC(N)=O)NC(=O)[C@H](CCSC)NC(=O)[C@H](CCCCN)NC(=O)[C@H](CCC(=O)O)NC(=O)[C@H](CCCCN)NC(=O)[C@H](CCC(=O)O)NC(=O)[C@H](Cc1ccccc1)NC(=O)[C@@H](N)CCCCN)[C@@H](C)O)C(=O)N[C@@H](Cc1ccc(O)cc1)C(=O)N[C@@H](CCCCN)C(=O)O [FIYM6] (H-KFEKEKMNAKWDTGENPIYK-OH)
no inhibition | CSCC[C@H](NC(=O)[C@H](CCCCN)NC(=O)[C@H](CCC(=O)O)NC(=O)[C@H](CCCCN)NC(=O)[C@H](CCC(=O)O)NC(=O)[C@H](Cc1ccccc1)NC(=O)[C@H](CCCCN)NC(=O)[C@H](C)NC(=O)[C@H](Cc1ccccc1)NC(=O)[C@@H](N)CCC(=O)O)C(=O)N[C@@H](CC(N)=O)C(=O)N[C@@H](C)C(=O)N[C@@H](CCCCN)C(=O)N[C@@H](Cc1c[nH]c2ccccc12)C(=O)N[C@@H](CC(=O)O)C(=O)N[C@H](C(=O)O)[C@@H](C)O [FIYM5] (H-EFAKFEKEKMNAKWDT-OH)
no inhibition | CSCC[C@H](NC(=O)[C@H](CCCNC(=N)N)NC(=O)[C@H](CCC(=O)O)NC(=O)[C@@H](N)Cc1ccccc1)C(=O)N[C@@H](CC(N)=O)C(=O)N[C@@H](CS)C(=O)N[C@@H](CCCCN)C(=O)N[C@@H](Cc1c[nH]c2ccccc12)C(=O)N[C@@H](CCSC)C(=O)N[C@H](C(=O)O)[C@@H](C)O [FIYM25] (H-FERMNCKWMT-OH)
no inhibition | CSCC[C@H](NC(=O)[C@H](CC(N)=O)NC(=O)[C@@H](N)CCC(=O)O)C(=O)N[C@@H](CCCCN)C(=O)N[C@@H](CCC(=O)O)C(=O)N[C@@H](CCCCN)C(=O)N[C@@H](CCCCN)C(=O)N[C@@H](CC(=O)O)C(=O)N[C@@H](Cc1c[nH]c2ccccc12)C(=O)N[C@@H](C)C(=O)N[C@@H](CCCCN)C(=O)N[C@@H](Cc1ccccc1)C(=O)N[C@H](C(=O)O)[C@@H](C)O [FIYM3] (H-ENMKEKKDWAKFT-OH)
no inhibition | CSCC[C@H](NC(=O)[C@H](CCCCN)NC(=O)[C@H](CCC(=O)O)NC(=O)[C@H](CCCCN)NC(=O)[C@H](CCC(=O)O)NC(=O)[C@H](Cc1ccccc1)NC(=O)[C@H](CCCCN)NC(=O)[C@@H]1CCCN1C(=O)CN)C(=O)N[C@@H](CC(N)=O)C(=O)N[C@@H](CS)C(=O)N[C@@H](CCCCN)C(=O)N[C@@H](Cc1c[nH]c2ccccc12)C(=O)N[C@@H](CCSC)C(=O)N[C@H](C(=O)O)[C@@H](C)O [FIYM55] (H-GPKFEKEKMNCKWMT-OH)
no inhibition | KF(-CI)EKEKMNCKWMT (KFEKEKMNCKWMT) [FIYM18]
no inhibition | CSCC[C@H](NC(=O)[C@H](Cc1c[nH]c2ccccc12)NC(=O)[C@H](CCCCN)NC(=O)[C@H](CS)NC(=O)[C@H](CC(N)=O)NC(=O)[C@H](CCSC)NC(=O)[C@H](CCCCN)NC(=O)[C@H](CCC(=O)O)NC(=O)[C@H](CCCCN)NC(=O)[C@H](CCC(=O)O)NC(=O)[C@H](Cc1ccccc1)NC(=O)[C@@H](N)CCCCN)C(=O)N[C@@H](CCCNC(=N)N)C(=O)O [FIYM12] (H-KFEKEKMNCKWMR-OH)
no inhibition | CSCC[C@H](NC(=O)[C@H](CCCNC(=N)N)NC(=O)[C@H](CCC(=O)O)NC(=O)[C@H](CCCCN)NC(=O)[C@H](CCC(=O)O)NC(=O)[C@H](Cc1ccccc1)NC(=O)[C@@H](N)CCCCN)C(=O)N[C@@H](CC(N)=O)C(=O)N[C@@H](CS)C(=O)N[C@@H](CCCCN)C(=O)N[C@@H](Cc1c[nH]c2ccccc12)C(=O)N[C@@H](CCSC)C(=O)N[C@H](C(=O)O)[C@@H](C)O [FIYM28] (H-KFEKERMNCKWMT-OH)
no inhibition | CSCC[C@H](NC(=O)[C@H](CCCCN)NC(=O)[C@H](CCC(=O)O)NC(=O)[C@H](CCCCN)NC(=O)[C@H](CCC(=O)O)NC(=O)[C@H](Cc1ccccc1)NC(=O)[C@H](CCCCN)NC(=O)[C@@H]1CCCN1)C(=O)N[C@@H](CC(N)=O)C(=O)N[C@@H](CS)C(=O)N[C@@H](CCCCN)C(=O)N[C@@H](Cc1c[nH]c2ccccc12)C(=O)N[C@@H](CCSC)C(=O)N[C@H](C(=O)O)[C@@H](C)O [FIYM54] (H-PKFEKEKMNCKWMT-OH)
no inhibition | CSCC[C@H](NC(=O)[C@H](CCCCN)NC(=O)[C@H](CCC(=O)O)NC(=O)[C@H](CCCCN)NC(=O)[C@H](CCC(=O)O)NC(=O)[C@H](Cc1ccccc1)NC(=O)[C@@H](N)CCCCN)C(=O)N[C@@H](CC(N)=O)C(=O)N[C@@H](CSCc1ccccc1)C(=O)N[C@@H](CCCCN)C(=O)N[C@@H](Cc1c[nH]c2ccccc12)C(=O)N[C@@H](CCSC)C(=O)N[C@H](C(=O)O)[C@@H](C)O [FIYM43] (H-KFEKEKMNC(Bn)KWMT-OH)
no inhibition | CSCC[C@H](NC(=O)[C@H](CCCCN)NC(=O)[C@H](CCC(=O)O)NC(=O)[C@H](CCCNC(=N)N)NC(=O)[C@H](CCC(=O)O)NC(=O)[C@H](Cc1ccccc1)NC(=O)[C@@H](N)CCCCN)C(=O)N[C@@H](CCSC)C(=O)N[C@@H](CS)C(=O)N[C@@H](CCCCN)C(=O)N[C@@H](Cc1c[nH]c2ccccc12)C(=O)N[C@@H](CCSC)C(=O)N[C@H](C(=O)O)[C@@H](C)O [FIYM32] (H-KFEREKMMCKWMT-OH)
no inhibition | CC[C@H](C)[C@H](NC(=O)[C@@H]1CCCN1C(=O)[C@H](CC(N)=O)NC(=O)[C@H](CCC(=O)O)NC(=O)[C@H](CCC(N)=O)NC(=O)[C@@H](NC(=O)[C@@H](NC(=O)[C@H](CCCNC(=N)N)NC(=O)[C@H](Cc1c[nH]c2ccccc12)NC(=O)[C@H](CCCCN)NC(=O)[C@H](CS)NC(=O)[C@H](CC(N)=O)NC(=O)[C@H](CCSC)NC(=O)[C@H](CCCCN)NC(=O)[C@H](CCC(=O)O)NC(=O)[C@H](CCCCN)NC(=O)[C@H](CCC(=O)O)NC(=O)[C@H](Cc1ccccc1)NC(=O)[C@@H](N)CCCCN)C(C)C)[C@@H](C)O)C(=O)N[C@@H](Cc1ccc(O)cc1)C(=O)N[C@@H](CCCCN)C(=O)O [FIYM56] (H-KFEKEKMNCKWRVTQENPIYK-OH)
no inhibition | CSCC[C@H](NC(=O)[C@H](Cc1c[nH]c2ccccc12)NC(=O)[C@H](CCCCN)NC(=O)[C@H](CS)NC(=O)[C@H](CC(N)=O)NC(=O)[C@H](CCSC)NC(=O)[C@H](CCCCN)NC(=O)[C@H](CCC(=O)O)NC(=O)[C@H](CCCCN)NC(=O)[C@H](CCC(=O)O)NC(=O)[C@H](Cc1ccccc1)NC(=O)[C@@H](N)CCCCN)C(=O)N[C@@H](COP(=O)(O)O)C(=O)O [FIYM14] (H-KFEKEKMNCKWM[pS]-OH)

same assay, conditions: inhibition of binding between TLN1 and ITBG, read-out: Inhibitory activity

IC50 [µM] | Compound
212 | KF(-Me)EKEKMNCKWMT (KFEKEKMNCKWMT) [FIYM19]
144 | CSCC[C@H](NC(=O)[C@H](CCCCN)NC(=O)[C@H](CCC(=O)O)NC(=O)[C@H](CCCCN)NC(=O)[C@H](CCC(=O)O)NC(=O)[C@H](Cc1ccccc1)NC(=O)[C@H](CCCCN)NC(=O)[C@@H]1CCCN1C(C)=O)C(=O)N[C@@H](CC(N)=O)C(=O)N[C@@H](CS)C(=O)N[C@@H](CCCCN)C(=O)N[C@@H](Cc1c[nH]c2ccccc12)C(=O)N[C@@H](CCSC)C(=O)N[C@H](C(=O)O)[C@@H](C)O [FIYM17] (Ac-PKFEKEKMNCKWMT-OH)
314 | C[C@H](NC(=O)[C@H](CCCNC(=N)N)NC(=O)[C@H](C)NC(=O)[C@H](CCCNC(=N)N)NC(=O)[C@H](CCC(=O)O)NC(=O)[C@H](CCC(=O)O)NC(=O)[C@H](CCC(=O)O)NC(=O)[C@H](Cc1ccccc1)NC(=O)[C@@H](N)CCCCN)C(=O)N[C@@H](CCCCN)C(=O)N[C@@H](Cc1c[nH]c2ccccc12)C(=O)N[C@@H](CC(=O)O)C(=O)N[C@H](C(=O)O)[C@@H](C)O [FIYM45] (H-KFEEERARAKWDT-OH)
110 | CSCC[C@H](NC(=O)[C@H](CCCCN)NC(=O)[C@H](CCC(=O)O)NC(=O)[C@H](CCCCN)NC(=O)[C@H](CCC(=O)O)NC(=O)[C@H](Cc1ccccc1)NC(=O)[C@@H](N)CCCCN)C(=O)N[C@@H](CC(N)=O)C(=O)N[C@@H](CSC(C)(C)C)C(=O)N[C@@H](CCCCN)C(=O)N[C@@H](Cc1c[nH]c2ccccc12)C(=O)N[C@@H](CCSC)C(=O)N[C@H](C(=O)O)[C@@H](C)O [FIYM40] (H-KFEKEKMNC(tBu)KWMT-OH)
